In ChEMBL document CHEMBL5108006, “Synthesis and antiviral properties of biomimetic iminosugar-based nucleosides” (Eur J Med Chem, 2022):

Legend:
[1] = test system: Human alphaherpesvirus 3; format: functional, organism-based; settings: Human alphaherpesvirus 3, O7-1, HEL
[2] = (§1) Cytotoxicity against HEL cells assessed as alteration of cell morphology by microscopic analysis; format: toxicity, cell-based; settings: human, HEL cells
[3] = test system: Vaccinia virus; test: microbe, parasite or virus in culture; settings: Orthopoxvirus vaccinia, HEL
[4] = test system: Human alphaherpesvirus 1; format: functional, organism-based; settings: Human alphaherpesvirus 1, KOS, HEL
[5] = test system: Human alphaherpesvirus 3; format: functional, organism-based; settings: Human alphaherpesvirus 3, OKA, HEL
[6] = test system: HEL; test: as §1; format: toxicity, cell-based; settings: human, hel
[7] = test system: Human betaherpesvirus 5; format: functional, organism-based; settings: Human betaherpesvirus 5, AD-169, HEL
[8] = test system: Human adenovirus 2; format: functional, organism-based; settings: Human mastadenovirus C, HEL
[9] = test system: Human alphaherpesvirus 1; format: functional, organism-based; settings: Human alphaherpesvirus 1, KOS, HEL; remark: listed apart in the source
[10] = test system: Human betaherpesvirus 5; format: functional, organism-based; settings: Human betaherpesvirus 5, Davis, HEL
[11] = test system: Human alphaherpesvirus 2; format: functional, organism-based; settings: Human alphaherpesvirus 2, G, HEL

Nc1nc2c(ncn2COCCO)c(=O)[nH]1 [ACYCLOVIR]
EC50 [1]: 14.7 µM
MCC [2]: > 250 µM
EC50 [3]: > 250 µM
EC50 [4]: 126 µM
EC50 [5]: 0.7 µM

O=c1[nH]c(=O)n([C@H]2C[C@H](O)[C@@H](CO)O2)cc1/C=C/Br [BRIVUDINE]
EC50 [1]: 2.4 µM
MCC [2]: > 250 µM
EC50 [5]: 0.042 µM

Nc1ccn(C[C@@H](CO)OCP(=O)(O)O)c(=O)n1 [CIDOFOVIR]
MCC [2]: > 250 µM
EC50 [4]: 1 µM

Nc1nc(=O)n([C@@H]2CN[C@H](CO)[C@@H](O)C2)cc1F
Activity [6]: Non-Toxic

O=c1[nH]c(=O)n([C@@H]2CN[C@H](CO)[C@@H](O)C2)cc1I
EC50 [1]: 61 µM
EC50 [7]: 76 µM
MCC [2]: > 100 µM
EC50 [8]: 50 µM
EC50 [9]: 45 µM
EC50 [3]: 50 µM
EC50 [4]: 34 µM
EC50 [10]: 67 µM
EC50 [5]: 50 µM
EC50 [11]: 45 µM

Nc1nc2c(ncn2COC(CO)CO)c(=O)[nH]1 [GANCICLOVIR]
MCC [2]: > 100 µM
EC50 [3]: > 100 µM
EC50 [10]: 0.63 µM
